{"source": "patent US20030236439A1", "about": "“Non-steroidal analogs of 2-methoxyestradiol” (priority 2002, published 2003)", "key": {"[1]": {"test_system": "MCF-7 cell", "details": "in vitro, over a wide range of concentrations; cited from earlier work"}, "[2]": {"test_system": "chick embryo chorioallantoic membrane", "assay": "chick embryo chorioallantoic membrane (CAM) assay", "assay_type": "in vivo", "details": "100 μg methylcellulose disk, after 48 hours", "text": "Anti-proliferative activity can be evaluated in situ by testing the ability of the new non-steroidal estradiol analogs to inhibit the proliferation of new blood vessel cells (angiogenesis). A suitable assay is the chick embryo chorioallantoic membrane (CAM) assay described by Crum et al. Science 230:1375 (1985). See also, U.S. Pat. No. 5,001,116, hereby incorporated by reference, which describes the CAM assay. Briefly, fertilized chick embryos are removed from their shell on day 3 or 4, and a methylcellulose disc containing the drug is implanted on the chorioallantoic membrane. The embryos are examined 48 hours later and, if a clear avascular zone appears around the methylcellulose disc, the diameter of that zone is measured."}, "[3]": {"test_system": "vascular endothelial cell proliferation", "details": "vascular endothelial vs tumor cell proliferation; cited from earlier work"}}}
{"compound": "COc1cc2c(cc1O)CC[C@@H]1[C@@H]2CC[C@]2(C)[C@@H](O)CC[C@@H]12", "note": "[2-methoxyestradiol]", "values": [{"measurement": "estrogenic activity", "setting": "[1]", "result": "not estrogenic"}, {"measurement": "effect on cell mitosis and growth of new blood vessels (avascular zone)", "setting": "[2]", "result": "inhibit cell mitosis and the growth of new blood vessels"}]}
{"compound": "CO[C@@H]1[C@H](OC(=O)NC(=O)CCl)CC[C@]2(CO2)[C@H]1[C@@]1(C)O[C@@H]1CC=C(C)C", "note": "[AGM-1470]", "values": [{"measurement": "half-maximal inhibition of endothelial cell proliferation at lower concentration than tumor cell proliferation", "setting": "[3]", "result": 4, "unit": "logs"}]}
